Source: patent US11466044B2 (WAYNE STATE UNIVERSITY, priority 2017, dated 2022)
Converted amounts (≈) assume the structure as drawn. Like-named read-outs stand apart in the source and are kept apart here.

Key:
MRSA = test: MIC by broth microdilution, MRSA isolates; format: cell-based; conditions: for MIC AG038 MRSA: clinical isolate AG038; for MIC AG039 MRSA AAC(6′)-I ANT(4′)-I: clinical isolate AG039, AAC(6′)-I ANT(4′)-I; for MIC AG042 MRSA AAC(6′)-I ANT(4′)-I APH(2′): clinical isolate AG042, AAC(6′)-I ANT(4′)-I APH(2′); for MIC AG044 MRSA: clinical isolate AG044
E coli wild type = test: MIC by broth microdilution, wild type E coli; format: cell-based; conditions: for MIC AG001 E. coli WT: clinical isolate AG001, WT; for MIC AG055 E. coli WT: clinical isolate AG055, WT
P aeruginosa = test: MIC by broth microdilution, P aeruginosa isolates; format: cell-based, Pseudomonas aeruginosa
[1] = test system: E coli carrying specific resistance determinants; test: MIC by broth microdilution, E coli carrying specific resistance determinants; format: cell-based; conditions: for MIC AG003 E. coli AAC(3)-II: clinical isolate AG003, AAC(3)-II
[2] = test system: wild type bacterial ribosomes; test: in-vitro translation assay, bacterial ribosomes; format: biochemical
From the text: (§1) The antiribosomal activity of these compounds was investigated with cell-free translation assays using both wild type bacterial ribosomes and hybrid ribosomes carrying eukaryotic decoding A sites enabling the prediction of selectivity.

[3] = test system: cytosolic ribosome (human chimeric); format: biochemical
From the text: as §1

[4] = test system: mitochondrial ribosome (human chimeric); format: biochemical
From the text: as §1

[5] = test system: rabbit reticulocyte ribosomes; test: in-vitro translation assay, rabbit reticulocyte ribosomes; format: biochemical; conditions: mammalian cytosolic ribosomes (rabbit)
[6] = test system: Klebsiella pneumonia AG215; test: MIC by broth microdilution, Klebsiella pneumonia; format: cell-based; conditions: strain AG215 Klebsiella pneumonia
[7] = test system: Acinetobacter baumannii pittii AG225; test: MIC by broth microdilution, Acinetobacter baumannii; format: cell-based; conditions: strain AG225 Acinetobacter baumannii pittii
[8] = test system: Enterobacter cloacae AG290; test: MIC by broth microdilution, Enterobacter cloacae; format: cell-based; conditions: strain AG290 Enterobacter cloacae
M. smegmatis SZ380 = test: MIC by broth microdilution, M. smegmatis; conditions: strain SZ380 Mycobacterium smegmatis
[9] = test system: A1555G mutant mitochondrial ribosome (human chimeric); test: in-vitro translation assay, human chimeric ribosomes, A1555G mutant mitochondrial decoding site; format: biochemical; conditions: human mitochondrial decoding site with A1555G point mutation; read-out: IC50 Mitoch. A1555G
From the text: as §1

[10] = Mycobacterium smegmatis ribosomes, read-out: IC50 Bacterial
[11] = ribosomes with a human mitochondrial decoding site, read-out: IC50 Mitoch.

## NC[C@@H]1O[C@H](O[C@H]2[C@@H](O)[C@H](O[C@@H]3[C@@H](O)[C@H](N)C[C@H](N)[C@H]3O[C@H]3O[C@H](CO)[C@@H](O)C[C@H]3N)O[C@@H]2CO)[C@H](N)[C@@H](O)[C@@H]1O [Lividomycin B, lividomycin B, reference compound]
MRSA
  MIC AG038 MRSA: 4 µg/mL (≈ 6.67 µM)
  MIC AG039 MRSA AAC(6′)-I ANT(4′)-I: >128 µg/mL
  MIC AG042 MRSA AAC(6′)-I ANT(4′)-I APH(2′): >128 µg/mL
  MIC AG044 MRSA: 4 to 8 µg/mL
MRSA; strain AG38, Table 1 (Example 1)
  MIC50 MRSA AG38: 4 µg/mL (≈ 6.67 µM)
MRSA; strain AG39, Table 1 (Example 1)
  MIC50 MRSA AG39: >128 µg/mL
MRSA; strain AG42, Table 1 (Example 1)
  MIC50 MRSA AG42: >128 µg/mL
MRSA; strain AG44, Table 1 (Example 1)
  MIC50 MRSA AG44: 4 to 8 µg/mL
E coli wild type; AG006 wt, Table 2 (Example 1)
  MIC E coli AG006 wt: 1 to 2 µg/mL
E coli wild type; AG102 wt, Table 2 (Example 1)
  MIC E coli AG102 wt: 2 µg/mL (≈ 3.34 µM)
E coli wild type; AG160 wt, Table 2 (Example 1)
  MIC E coli AG160 wt: 4 µg/mL (≈ 6.67 µM)
E coli wild type; WT, Table 3 (Example 1)
  MIC WT: 2 µg/mL (≈ 3.34 µM)
E coli wild type
  MIC AG001 E. coli WT: 4 µg/mL (≈ 6.67 µM)
  MIC AG055 E. coli WT: 2 µg/mL (≈ 3.34 µM)
E coli wild type; clinical isolate AG160 WT, Table 2 (Example 4)
  MIC AG160 E. coli WT: 4 µg/mL (≈ 6.67 µM)
E coli wild type; engineered strain pH430 WT, Table 2 (Example 4)
  MIC pH430 E. coli WT: 2 μg/ml
E coli wild type; strain AG01, Table 1 (Example 1)
  MIC50 E coli AG01: 16 µg/mL (≈ 26.7 µM)
E coli wild type; strain AG03, Table 1 (Example 1)
  MIC50 E coli AG03: 8 to 16 µg/mL
E coli wild type; strain AG55, Table 1 (Example 1)
  MIC50 E coli AG55: 16 µg/mL (≈ 26.7 µM)
E coli wild type; strain AG212 E. coli (ATCC25922)
  MIC AG212 E. coli: 4 µg/mL (≈ 6.67 µM)
P aeruginosa; clinical isolate AG031, APH(3′)-II
  MIC AG031 P. aer. APH(3′)-II: 16 µg/mL (≈ 26.7 µM)
P aeruginosa; clinical isolate AG032, APH(3′)-II
  MIC AG032 P. aer. APH(3′)-II: >128 µg/mL
P aeruginosa; strain AG31, Table 1 (Example 1)
  MIC50 P aeruginosa AG31: 16 µg/mL (≈ 26.7 µM)
P aeruginosa; strain AG32, Table 1 (Example 1)
  MIC50 P aeruginosa AG32: >128 µg/mL
P aeruginosa; strain AG33, Table 1 (Example 1)
  MIC50 P aeruginosa AG33: 128 µg/mL (≈ 213 µM)
P aeruginosa; strain AG86, Table 1 (Example 1)
  MIC50 P aeruginosa AG86: 128 µg/mL (≈ 213 µM)
P aeruginosa; strain AG220 Pseudomonas aeruginosa ATCC27853
  MIC AG220 P. aerugin: 4 µg/mL (≈ 6.67 µM)
[1]; AG007 ANT(3″) AAC(3)-I, Table 2 (Example 1)
  MIC E coli AG007 ANT(3″) AAC(3)-I: 4 µg/mL (≈ 6.67 µM)
[1]; AG103 ArmA, Table 2 (Example 1)
  MIC E coli AG103 ArmA: 16 µg/mL (≈ 26.7 µM)
[1]; AG163/164 APH(3′)-Ia, Table 2 (Example 1)
  MIC E coli AG163/164 APH(3′)-Ia: >128 µg/mL
[1]; AG166 APH(3′)-IIa, Table 2 (Example 1)
  MIC E coli AG166 APH(3′)-IIa: 4 to 8 µg/mL
[1]; APH(3)-VI, Table 3 (Example 1)
  MIC APH(3)-VI: 2 µg/mL (≈ 3.34 µM)
[1]; APH(3′)-I, Table 3 (Example 1)
  MIC APH(3′)-I: >64 µg/mL
[1]; APH(3′)-II, Table 3 (Example 1)
  MIC APH(3′)-II: 2 µg/mL (≈ 3.34 µM)
[1]; APH(3′)-III, Table 3 (Example 1)
  MIC APH(3′)-III: >64 µg/mL
[1]
  MIC AG003 E. coli AAC(3)-II: 4 µg/mL (≈ 6.67 µM)
[1]; clinical isolate AG163 APH(3′)-I, Table 2 (Example 4)
  MIC AG163 E. coli APH(3′)-I: >128 µg/mL
[1]; clinical isolate AG166 APH(3′)-II, Table 2 (Example 4)
  MIC AG166 E. coli APH(3′)-II: 4 to 8 µg/mL
[1]; engineered strain AG037 APH(3′)-III, Table 2 (Example 4)
  MIC AG037 E. coli APH(3′)-III: >128 µg/mL
[1]; engineered strain pH421 APH(3′)-I, Table 2 (Example 4)
  MIC pH421 E. coli APH(3′)-I: >64 μg/ml
[1]; engineered strain pH422 APH(3′)-II, Table 2 (Example 4)
  MIC pH422 E. coli APH(3′)-II: 2 μg/ml
[1]; engineered strain pH423 APH(3′)-VI, Table 2 (Example 4)
  MIC pH423 E. coli APH(3′)-VI: 2 μg/ml
[2]; [10]
  IC50: 0.04 µM
[2]; bacterial ribosome, Table 3 (Example 1), read-out: IC50 Bac
  IC50: 0.04 µM
[3]; cytosolic, Table 3 (Example 1), read-out: IC50 Cyt
  IC50: 53 µM
[3]; ribosomes with a human cytosolic decoding site, read-out: IC50 Cytosolic
  IC50: 53 µM
[4]; mitochondrial, Table 3 (Example 1), read-out: IC50 Mit
  IC50: 109 µM
[4]; [11]
  IC50: 109 µM
[5]
  IC50: 25 µM
[6]
  MIC AG215 K. pneumon: 2 µg/mL (≈ 3.34 µM)
[7]
  MIC AG225 A. baumannii: 4 µg/mL (≈ 6.67 µM)
[8]
  MIC AG290 E. cloacae: 2 µg/mL (≈ 3.34 µM)
M. smegmatis SZ380
  MIC SZ380 M. smegmatis: 0.5 µg/mL (≈ 0.834 µM)

## NC[C@H]1O[C@H](O[C@H]2[C@H](O[C@@H]3O[C@H](CN)[C@@H](O)[C@H]3O)[C@@H](O)[C@H](N)C[C@@H]2N)[C@H](N)[C@@H](O)[C@@H]1O [DC048]
MRSA
  MIC AG038 MRSA: 8 µg/mL (≈ 17.6 µM)
  MIC AG039 MRSA AAC(6′)-I ANT(4′)-I: >64 µg/mL
  MIC AG042 MRSA AAC(6′)-I ANT(4′)-I APH(2′): >128 µg/mL
  MIC AG044 MRSA: 8 to 16 µg/mL
E coli wild type
  MIC AG001 E. coli WT: 32 to 64 µg/mL
  MIC AG055 E. coli WT: 32 µg/mL (≈ 70.6 µM)
[1]
  MIC AG003 E. coli AAC(3)-II: 16 µg/mL (≈ 35.3 µM)
[2]; [10]
  IC50: 0.09 µM
[9]
  IC50: 34 µM
[4]; [11]
  IC50: 76 µM
[5]
  IC50: 50 µM
